Laboratory results published in patent publication US9334272B2, “Derivatives of purinic and pyrimidinic antiviral agents and use thereof as potent anticancer agents” (Ramot at Tel-Aviv University Ltd., priority 2007, dated 2016).

Test system: 4T1 murine breast carcinoma
Assay: Metastatic 4T1 breast carcinoma model
Type: in vivo, mice
Conditions: 25 mg/kg, 4T1 model, p<0.05
Protocol: The syngeneic murine breast carcinoma metastatic model was performed with 8-10 weeks old BALB-c mice implanted with 4T1 cells. When the tumor volume reached 75-180 mm^3 (after ˜10 days), treatment was initiated for an additional 21 days. At termination, the animals were sacrificed and their lungs removed, stained with Bouin's solution, and lung lesions were scored under an illuminated magnifying glass.

CCCC(CCC)C(=O)Nc1nc2c(ncn2COCCOC(=O)C(CCC)CCC)c(=O)[nH]1 [Compound 6, N-valproyl-9-(2-valproyloxy)ethoxymethylguanine]
lung weight: reduction in lung weight
number of observed lung lesions: reduction in the number of observed lung lesions
